Data published in patent US4939092A, “Proteinaceous derivatives containing iron in highly bioavailable form, preparation thereof and pharmaceutical compositions containing them” (Unibois S.p.A., priority 1987, dated 1990).
Read-outs that look alike come from different tables or passages of the source.

Assays:
[1] = Solubility / precipitation; format: physicochemical
[2] = background; cited from earlier work
[3] = oral, background; cited from earlier work
[4] = rat, in vivo, po, 100 mg/kg
Description: (§1) In the aim of correctly evaluating activity, bio-availability and toxicity of the products under exam, they were suitably vehicled by means of dissolution in mixtures of H2 O/propylene glycol/sorbitol, in equal proportions, so as to obtain for the experimental tests solutions at identical Fe^+++ titre (4 mg/ml).

[5] = Antianemic activity (iron-deficient diet); format: in vivo, rats; conditions: iron-deficient diet + substance
Description: as §1

[6] = Acute toxicity after oral administration in the male rat; format: in vivo; conditions: for N° DEAD ANIMALS: 10 animals
Description: ACUTE TOXICITY OF UB 1004 AFTER ORAL
ADMINISTRATION IN THE MALE RAT

[7] = Gastric tolerability: values of the lesions found on the gastric mucosa; conditions: for value of the lesions on the gastric mucosa / value of the lesions on the gastric mucosa, Media (mean): oral t.i.d., 100 mg/kg iron; for value of the lesions on the gastric mucosa, Media (mean): mean of 7 animals
Description: as §1

[8] = oral, 25 mg/Kg Fe = 367.5 mg/Kg
[9] = oral, 100 mg/Kg Fe = 1470 mg/Kg
[10] = oral, 200 mg/Kg Fe = 2940 mg/Kg
[11] = oral, 400 mg/Kg Fe = 5880 mg/Kg

Compound	Solubility at pH 8 [1]	HEMOGLOBIN ([5]; 7 (time unit not given)) [g/100 ml]	SYDEREMIA ([5]; 7 (time unit not given)) [μg/100 ml]	ERYTHROCYTES ([5]; 14 (time unit not given))	HEMOGLOBIN ([5]; 14 (time unit not given)) [g/100 ml]	SYDEREMIA ([5]; 14 (time unit not given)) [μg/100 ml]	ERYTHROCYTES ([5]; 21 (time unit not given))	HEMOGLOBIN ([5]; 21 (time unit not given)) [g/100 ml]	SYDEREMIA ([5]; 21 (time unit not given)) [μg/100 ml]	value of the lesions on the gastric mucosa ([7]; animal 1)	value of the lesions on the gastric mucosa ([7]; animal 2)	value of the lesions on the gastric mucosa ([7]; animal 3)	value of the lesions on the gastric mucosa ([7]; animal 4)	value of the lesions on the gastric mucosa ([7]; animal 5)	value of the lesions on the gastric mucosa ([7]; animal 6)	value of the lesions on the gastric mucosa ([7]; animal 7)	value of the lesions on the gastric mucosa, Media (mean) [7]	ERYTHROCYTES ([5]; 7 (time unit not given))	also measured
lysozyme glutarate: lysozyme acylated with glutaric anhydride, Example 1(a)	Complete	–	–	–	–	–	–	–	–	–	–	–	–	–	–	–	–	–	Solubility at pH 3 ([1]; pH 3): nil
Ferritin	–	13.88 ± 0.93	196.3 ± 88.9	6.99 ± 0.58 10^6 /mm^3	15.46 ± 0.93	217.1 ± 52.7	6.99 ± 0.13 10^6 /mm^3	14.43 ± 1.12	227.6 ± 25.7	–	–	–	–	–	–	–	–	–	water solubility [2]: hydrosoluble; gastrointestinal side-effects [3]: does not have gastrointestinal side-effects; value of the lesions on the gastric mucosa, Media (mean) [4]: 0.28
UB 1004: iron (ferric) complex of lysozyme glutarate, obtained in Example 1(b) with ferric glycerophosphate	Complete	14.43 ± 1.13	178.6 ± 57.1	7.20 ± 0.48 10^6 /mm^3	15.70 ± 1.00	177.5 ± 42.8	7.13 ± 0.26 10^6 /mm^3	15.58 ± 0.97	184.3 ± 31.8	0	0	0	0	0	0	0	0	7.20 ± 0.58 10^6 /mm^3	% DEATH-RATE [6, 8]: 0.00%; N° DEAD ANIMALS [6, 8]: 0; % DEATH-RATE ([6]; oral, 50 mg/Kg Fe = 735 mg/Kg): 0.00%; N° DEAD ANIMALS ([6]; oral, 50 mg/Kg Fe = 735 mg/Kg): 0; % DEATH-RATE [6, 9]: 0.00%; N° DEAD ANIMALS [6, 9]: 0; % DEATH-RATE [6, 10]: 0.00%; N° DEAD ANIMALS [6, 10]: 0; % DEATH-RATE [6, 11]: 0.00%; N° DEAD ANIMALS [6, 11]: 0; DL50 ([6]; oral, male rat, up to 400 mg/Kg Fe): NOT DETERMINABLE; Precipitation with (NH4)2SO4 at 30% ([1]; (NH4)2SO4 30%): Complete; Solubility of the precipitate with (NH4)2SO4 in water ([1]; water): Complete
O=S(=O)([O-])[O-].[Fe+2] [FERROUS SULFATE, Ferrous Sulphate, reference compound]	–	14.38 ± 1.91	247.6 ± 87.0	7.34 ± 0.46 10^6 /mm^3	15.63 ± 0.33	198.4 ± 52.2	6.94 ± 0.42 10^6 /mm^3	14.09 ± 1.50	171.0 ± 19.9	1	2	1	1	3	1	3	1.70	7.07 ± 0.76 10^6 /mm^3	toxicity ([6]; conclusions): considerably toxic; gastric damage ([7]; conclusions): harmful at the gastric level
